Source: US11910794B2, “Solutions and methods for long-term pollen storage” (Monsanto Technology LLC, priority 2021, dated 2024)
Where two headings read alike, the source gives them in different places.

Legend:
pollen [1] = conditions: not told
Experimental: (§1) As used herein the term “impermeable” refers to a state where an isotonic solution of the solute when first mixed with pollen produces less than about 10% pollen lysis over the first 4 hours that the pollen is in contact with the solution. As used herein the term “permeable” refers to a state where an isotonic solution of the cryoprotectant when first mixed with pollen produces greater than 50% pollen lysis over the first 4 hours that the pollen is in contact with the solution.
(§2) The pollen permeability of numerous cryoprotectants was evaluated to initially identify suitable candidates for use in the pollen storage solution. Suitable cryoprotectants will be permeable to the pollen in the solution. Suitable solutes will maintain the tonicity of the pollen storage solution at a concentration between about 0.5M and about 3.0M. […] Pollen storage solutions comprising 1.0M sucrose, 10 mM MES, and 0.5M, 1.0M, or 1.5M of cryoprotectant were evaluated for pollen toxicity.

corn pollen = assay: Pollen toxicity: germination of corn pollen after incubation in pollen storage solutions; type: cell-based, corn (Zea mays); conditions: 1.0M sucrose, 10 mM MES, 0.5M, 1.0M or 1.5M cryoprotectant; 15 minutes at room temperature or 4° C.; germination plates; FIG. 1
Experimental: Pollen storage solutions comprising 1.0M sucrose, 10 mM MES, and 0.5M, 1.0M, or 1.5M of cryoprotectant were evaluated for pollen toxicity. Briefly, corn pollen was suspended in each pollen storage solution at either room temperature or 4° C. and incubated for 15 minutes. The pollen storage solutions were applied to standard germination plates using an airbrush and images of the plates were obtained to evaluate germination. A 1.0M solution of sucrose was used as the positive control.

pollen [2] = assay: Pollen permeability of cryoprotectants; conditions: permeability test of cryoprotectants
Experimental: as §1, §2

Compound	pollen permeability of cryoprotectant (pollen [1])	germination rates (corn pollen)	pollen permeability of cryoprotectant (pollen [2])
C[S+](C)[O-] [DMSO, dimethyl sulfoxide]	among the most permeable	highest germination rates	
OCCO [ethylene glycol]		highest germination rates	among the most permeable
